According to paper PMC11681159, “Bee pollen peptides as potent tyrosinase inhibitors with anti-melanogenesis effects in murine b16f10 melanoma cells and zebrafish embryos” (Scientific Reports, 2024):
“Also recorded” adds a separate entry of the source. Ends that are not written are not given here.

Legend:
mushroom TYR = target: T1, mushroom TYR (Agaricus bisporus, UniProt C7FF04); assay: Kinetic study, Lineweaver-Burk, mono-phenolase; type: biochemical; conditions: Km rose, Vmax unchanged
T1 construct: purchased Sigma-Aldrich, Merck T3824
Procedure: It is necessary to determine the type of TYR inhibitory activity which takes place. This can be achieved through a modified version of an assay described by Feng et al.[39]. The process starts by dissolving the peptide VY-9 in deionized water at various concentrations (0, 0.25, 0.5, and 1 mM). Each VY-9 peptide sample at each concentration (35 µL) was combined 15 µL of mushroom TYR (333 U/mL in 50 mM PBS pH 6.8) prior to 5 min of incubation at 25 °C. Subsequently, various concentrations of substrate were introduced, namely 0–2 mM L-tyrosine in the case of mono-phenolase, and 0–12 mM L-DOPA for di-phenolase. These new mixtures underwent further incubation for 30 min at the same temperature of 25 °C. Upon completion, a spectrophotometer was used to measure the absorbance and determine the inhibitory activity at 490 nm. Lineweaver-Burk plots were then used in calculating Km and Vmax, the kinetic parameters. Km is indicated by the intersection point on the X-axis while Vmax is indicated by the intersection point on the Y-axis in the mode of TYR inhibition under examination. Construction of the plots linked the substrate concentration reciprocal on the X-axis and the absorbance reciprocal (at 490 nm) on the Y-axis, to represent the starting rate for the enzymatic reaction. […]

Trp-1 = assay: qRT-PCR, Trp-1 mRNA; type: cell-based, mouse; conditions: B16F10, 48 h
Procedure: A 6-well plate was used to seed B16F10 cells at 1 × 10^5 cells per well prior to overnight incubation in a 5% CO2 humid atmosphere at 37°C. […] Harvesting was conducted via removal of the supernatant, and the cells were rinsed twice in PBS (phosphate-buffered saline). The PureLink™RNA Mini Kit (Invitrogen™, USA) was then used to extract total RNA in line with the guidance of the manufacturer. RNA concentration was assessed at 260 nm with a NanoDrop 2000 UV-Vis spectrophotometer (Thermo Fisher Scientific, Inc.). Oligo-dT primers and a Precision nanoScript II Reverse Transcription Kit (PrimerDesign, Camberley, UK) were used to perform the reverse transcription of 1 µg of total RNA to cDNA in line with the guidance of the manufacturer. MyGo Pro®Real time PCR apparatus (IT-IS International Ltd., Stokesley, UK) was then used to perform the qRT-PCR assays in which 20 µL of PCR reaction contained 1 µL of cDNA, 7 µL of ultrapure water, 1 µL of each primer […], and 10 µL of 2×qPCRBIO SyGreen Mix (PCR Biosystems Ltd, London, UK). […] The relative gene expression level could then be calculated via the cycle threshold (Ct) value, while the role of endogenous control for data normalization was occupied by Gapdh (the housekeeping gene). […]

Trp-2 = assay: Western blot, TRP-2 protein; type: cell-based, mouse; conditions: B16F10, 48 h
Procedure: Following this process, the cells were lysed using NP40 Cell Lysis Buffer with protease inhibitor cocktail supplementation. Next, 12% sodium dodecyl sulfate poly-acrylamide (SDS-PAGE) gel electrophoresis was used to extract equal quantities of protein from each sample, with subsequent transfer to PVD (polyvinylidene fluoride) membranes (Millipore, Bedford, MA, USA). The membrane was blocked overnight with 3% skimmed milk (w/v) in TBST with 0.5% Tween 20 at 4 °C and then washed thrice in TBST. The rabbit polyclonal anti-TYR antibody (dilution 1:1000), anti-TRP-1 antibody (dilution 1:1000), anti-TRP-2 antibody and anti-MITF antibody (dilution 1:1000) obtained from Abcam (USA), were used respectively to detect the TYR, TRP-1, TRP-2, and MITF bands. After thrice washing again in TBST, secondary antibodies (dilution 1:5000) were added to the membranes for 1 h of incubation at room temperature before another triplicate washing in TBST. Enhanced chemiluminescence horseradish peroxidase (HRP) substrates (GeneDirex, Taiwan) were then used in line with the guidance of the manufacturer to detect bound antibodies, while β-actin antibody was employed to evaluate the loading control. Gel band detection was performed using ImageJ software (version 1.54), available at https://imagej.net/ij/. The software facilitated the identification and quantification of protein expression levels.

zebrafish embryos = assay: Melanin inhibitory assay in zebrafish embryos; type: in vivo; conditions: 48 h after fertilization, vs control
Procedure: To perform the test of acute toxicity, a total of 20 fertilized zebrafish embryos were collected at around 4 h after fertilization and added to each well in a 12-well plate. These embryos then underwent treatment using different quantities of […] (2, 4, 6, 8, and 10 µM), while the negative control was distilled water and the positive control was 3,4-dichloroaniline. Incubation of the plate then took place until 48 h after fertilization at a temperature of 28.5 ± 1 °C. The test solutions were refreshed at 24 h after fertilization to allow the counting and removal of any dead embryos. Following exposure, a stereomicroscope (SZX16, Olympus, Japan) was used to record the embryo morphological effects. Meanwhile, a slightly modified version of a previously described melanin inhibitory assay was carried out[30]. The embryos were then homogenized using a cold lysis buffer (PBS pH 7.4, 1% Triton-X and 1% DMSF). The lysate then underwent 10 min of sonication before being placed in a centrifuge for 5 min at 10,000×g. The pellet was then removed from the centrifuge and dissolved in 200 µL of 1 N NaOH for 1 h at a temperature of 85 °C. This sample was subsequently vortexed and placed in the centrifuge for a further 5 min at 10,000×g. A microplate reader (Spectramax M5, Molecular Devices, USA) was then employed to determine the supernatant absorbance at 490 nm. Melanin content levels could then by calibrated by using the protein amount, and were reported in the form of a percentage compared to the untreated control. In the melanin inhibitory assay, the positive control used was phenylthiourea (PTU) solution (0.0015%).

T1 sequence (C7FF04 2-392): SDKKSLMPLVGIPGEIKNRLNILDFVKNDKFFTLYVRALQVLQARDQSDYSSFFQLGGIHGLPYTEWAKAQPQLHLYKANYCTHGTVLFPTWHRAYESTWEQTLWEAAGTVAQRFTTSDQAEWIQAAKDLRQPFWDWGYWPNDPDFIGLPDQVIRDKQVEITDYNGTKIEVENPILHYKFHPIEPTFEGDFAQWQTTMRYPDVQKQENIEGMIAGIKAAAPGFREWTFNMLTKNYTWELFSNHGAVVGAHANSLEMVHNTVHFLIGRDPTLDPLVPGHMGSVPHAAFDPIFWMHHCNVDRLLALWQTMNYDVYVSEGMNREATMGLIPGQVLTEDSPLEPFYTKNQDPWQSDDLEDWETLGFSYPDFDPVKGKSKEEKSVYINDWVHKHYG

VDGYPAAGY [VY-9, Val-Asp-Gly-Tyr-Pro-Ala- Ala-Gly-Tyr]
inhibition type, mono-phenolase (mushroom TYR): competitive inhibitor | Trp-1 mRNA expression vs control (Trp-1; 1.6 µM): significantly reduced the expression levels of all measured genes | concentration at which Trp-1 mRNA expression was reduced (highest only) (Trp-1; vs control): 1.6 µM | TRP-2 protein level vs control (Trp-2; 0.2 µM): decreased slightly compared to the control | TRP-2 protein expression vs control (Trp-2; 1.6 µM): the expression of all proteins decreased compared to the control | concentration from which TRP-2 protein expression gradually decreased (Trp-2; western blot): 0.2 µM | melanin content (zebrafish embryos; 4 µM): anti-melanogenic effects were observed; also recorded: the lowest among all treatment groups, it did not achieve statistical significance | melanin content (zebrafish embryos; any concentration (2–10 µM)): no significant reduction in melanin levels at any concentration
